Experimental data from publication PMC2763345 (PLoS Pathogens, 2009).
Converted amounts (≈) assume the structure as drawn. Where two headings read alike, the source gives them in different places.

Columns and labels:
[1] = system: M. tuberculosis H37Rv-GFP; experiment: microbe, parasite or virus in culture; type: cell-based, Mycobacterium tuberculosis; conditions: for MIC: Mycobacterium tuberculosis, H37RV
[2] = system: M. tuberculosis H37Rv-GFP in Raw264.7 macrophages; experiment: microbe, parasite or virus in culture; type: cell-based, Mycobacterium tuberculosis; conditions: for MIC: Mycobacterium tuberculosis, H37RV
M. tuberculosis H37Rv [3] = type: cell-based
M. tuberculosis H37Ra [4] = type: cell-based
BCG Pasteur-Tokyo = type: cell-based, M. bovis BCG
M. smegmatis mc2 155 = type: cell-based
[5] = system: Acinetobacter baumannii, Escherichia coli, Enterobacter cloacae, E. aerogenes, Klebsiella oxytoca, Pseudomonas aeruginosa, Salmonella enteridis, Vibrio mimicus; type: cell-based, Gram-negative bacteria
[6] = system: Staphylococcus aureus, S. epidermis, S. capitis, S. xylosus, Micrococcus luteus, Listeria innocua, Lactobacillus gallinarum, group G Streptococcus …; type: cell-based, Gram-positive bacteria
C. striatum = type: cell-based, Corynebacterium striatum
C. jeikeium = type: cell-based, Corynebacterium jeikeium
[7] = system: Candida albicans, C. glabrata, C. parapsilosis; type: cell-based, Fungi
[8] = system: M. smegmatis mc2 155 Wild Type; experiment: microbe, parasite or virus in culture; type: cell-based; conditions: Mycolicibacterium smegmatis, MC2155
BCG Wild Type = experiment: microbe, parasite or virus in culture; type: cell-based, M. bovis BCG; conditions: Mycobacterium tuberculosis variant bovis BCG, BCG
M. tuberculosis H37Ra [9] = type: cell-based; remark: listed apart in the source
M. tuberculosis H37Rv [10] = type: cell-based; remark: listed apart in the source
in vitro = conditions: C57BL/6, mouse
[11] = system: M. tuberculosis H37Rv-GFP in human primary macrophages; type: cell-based, Mycobacterium tuberculosis
[12] = system: M. tuberculosis H37Rv-GFP in mouse bone marrow-derived macrophages; type: cell-based, Mycobacterium tuberculosis

Structure (SMILES): NC(=O)c1c(NC(=O)C2CC2)sc2c1CCCC2 [AX20017]
- In vitro broth growth MIC (µM) [1]: >20 µM
- In vitro broth growth MIC (µg/mL) [1]: >5 µg/mL
- Intracellular macrophage growth MIC (µM) [2]: >20 µM
- Intracellular macrophage growth MIC (µg/mL) [2]: >5 µg/mL
- Intracellular macrophage growth Cell toxicity (Raw264.7 macrophages): >20 µM

Structure (SMILES): NCC[C@H](O)C(=O)N[C@@H]1C[C@H](N)[C@@H](O[C@H]2O[C@H](CN)[C@@H](O)[C@H](O)[C@H]2O)[C@H](O)[C@H]1O[C@H]1O[C@H](CO)[C@@H](O)[C@H](N)[C@H]1O [Amikacin]
- MIC ([1]; read-out: In vitro broth growth MIC (µM)): 0.07 µM
- MIC ([1]; read-out: In vitro broth growth MIC (µg/mL)): 0.04 µg/mL
- MIC ([2]; 120 h, read-out: Intracellular macrophage growth MIC (µM)): > 150 µM
- MIC ([2]; 120 h, read-out: Intracellular macrophage growth MIC (µg/mL)): > 20 µg/mL
- Intracellular macrophage growth Cell toxicity (Raw264.7 macrophages; mouse): >150 µM

Structure (SMILES): O=C(NCCOCc1cccc(Cl)c1)c1cc([N+](=O)[O-])cc([N+](=O)[O-])c1 [Compound 1]
- MIC ([1]; read-out: MIC Extracellular): 0.2 µM
- MIC ([2]; read-out: MIC Intracellular): 1 µM

Structure (SMILES): Nc1cc(C(=O)NCCOCc2cccc(Cl)c2)cc([N+](=O)[O-])c1 [Compound 2]
- MIC ([1]; read-out: MIC Extracellular): > 20 µM
- MIC ([2]; read-out: MIC Intracellular): > 20 µM

Structure (SMILES): O=C(NCCOCc1cccc(Cl)c1)c1cc(NO)cc([N+](=O)[O-])c1 [Compound 3]
- MIC ([1]; read-out: MIC Extracellular): > 20 µM
- MIC ([2]; read-out: MIC Intracellular): > 20 µM

Structure (SMILES): O=C(NCCOCc1cccc(Cl)c1)c1cccc([N+](=O)[O-])c1 [Compound 4]
- MIC ([1]; read-out: MIC Extracellular): > 20 µM
- MIC ([2]; read-out: MIC Intracellular): > 20 µM

Structure (SMILES): O=C(NCCOCc1ccccc1F)c1cc([N+](=O)[O-])cc([N+](=O)[O-])c1 [Compound 5]
- MIC ([1]; read-out: MIC Extracellular): 0.08 µM
- MIC ([2]; read-out: MIC Intracellular): 0.2 µM

Structure (SMILES): O=C(NCCOCc1cccc(C(F)(F)F)c1)c1cc([N+](=O)[O-])cc([N+](=O)[O-])c1 [Compound 6]
- MIC ([1]; read-out: MIC Extracellular): 0.2 µM
- MIC ([2]; read-out: MIC Intracellular): 0.2 µM

Structure (SMILES): O=C(NCCOCc1ccccc1)c1cc([N+](=O)[O-])cc([N+](=O)[O-])c1 [Compound 7, N-(2-(benzyloxy)ethyl)-3,5-dinitrobenzamide]
- MIC ([1]; read-out: MIC Extracellular): 0.2 µM
- MIC ([2]; read-out: MIC Intracellular): 0.2 µM
- Range of MICs for multiple strains (M. tuberculosis H37Rv [3]): 0.2 µM
- Range of MICs for multiple strains (M. tuberculosis H37Ra [4]): 0.2 µM
- Range of MICs for multiple strains (BCG Pasteur-Tokyo): 0.2 to 0.7 µM
- Range of MICs for multiple strains (M. smegmatis mc2 155): 0.4 µM
- Range of MICs for multiple strains [5]: > 250 µM
- Range of MICs for multiple strains [6]: > 250 µM
- Range of MICs for multiple strains (C. striatum): 27 µM
- Range of MICs for multiple strains (C. jeikeium): 2.7 µM
- Range of MICs for multiple strains [7]: > 250 µM
- MIC [8]: 0.25 µg/mL (≈ 0.724 µM)
- MIC (BCG Wild Type): 0.25 µg/mL (≈ 0.724 µM)
- effect on the synthesis of the arabinan domains of arabinogalactan (AG) and lipoarabinomannan (LAM) (M. tuberculosis H37Ra [9]): clear-cut effect
- effects on the biosynthesis of fatty acids, mycolic acids and/or other lipids (M. tuberculosis H37Ra [9]): no effects
- bactericidal effect on M. tuberculosis (M. tuberculosis H37Rv [10]): time-dependent
- IC50 (in vitro): 50 µM

Structure (SMILES): COc1ccc(OCCNC(=O)c2cc([N+](=O)[O-])cc([N+](=O)[O-])c2)cc1 [Compound 8, N-(2-(4-methoxyphenoxy)ethyl)-3,5-dinitrobenzamide]
- MIC ([1]; read-out: MIC Extracellular): 0.2 µM
- MIC ([2]; read-out: MIC Intracellular): 0.2 µM
- decrease in the number of CFUs [11]: More than a ten-fold decrease
- decrease in the number of CFUs [12]: More than a ten-fold decrease
- Range of MICs for multiple strains (M. tuberculosis H37Rv [3]): 0.2 µM
- Range of MICs for multiple strains (M. tuberculosis H37Ra [4]): 0.2 µM
- Range of MICs for multiple strains (BCG Pasteur-Tokyo): 0.2 µM
- Range of MICs for multiple strains (M. smegmatis mc2 155): 0.4 µM
- Range of MICs for multiple strains [5]: > 250 µM
- Range of MICs for multiple strains [6]: > 250 µM
- Range of MICs for multiple strains (C. striatum): 27 µM
- Range of MICs for multiple strains (C. jeikeium): 2.7 µM
- Range of MICs for multiple strains [7]: > 250 µM
- MIC [8]: 0.15 µg/mL (≈ 0.415 µM)
- MIC (BCG Wild Type): 0.075 µg/mL (≈ 0.208 µM)
- effect on the synthesis of the arabinan domains of arabinogalactan (AG) and lipoarabinomannan (LAM) (M. tuberculosis H37Ra [9]): clear-cut effect
- effects on the biosynthesis of fatty acids, mycolic acids and/or other lipids (M. tuberculosis H37Ra [9]): no effects
- bactericidal effect on M. tuberculosis (M. tuberculosis H37Rv [10]): time-dependent
- IC50 (in vitro): 50 µM

Structure (SMILES): O=C(NCCOc1ccccc1F)c1cc([N+](=O)[O-])cc([N+](=O)[O-])c1 [Compound 9]
- MIC ([1]; read-out: MIC Extracellular): 0.2 µM
- MIC ([2]; read-out: MIC Intracellular): 0.7 µM

Structure (SMILES): COc1ccc(O[C@H]2CCN(C(=O)c3cc([N+](=O)[O-])cc([N+](=O)[O-])c3)C2)cc1 [Compound 10-(S)]
- MIC ([1]; read-out: MIC Extracellular): 0.08 µM
- MIC ([2]; read-out: MIC Intracellular): 20 µM
